Test results as given in US20220177510A1, “DERIVATIVES OF GYLCERO-MANNO-HEPTOSE ADP FOR USE IN MODULATING IMMUNE RESPONSE” (priority 2019, published 2022).

How the values were obtained:
ALPK1 [1] = molecular target: T1, ALPK1 (Homo sapiens, UniProt Q96QP1); assay: NF-kB promoter driven alkaline phosphatase reporter in HEK293 cells (pNPP assay); format: cell-based; conditions: HEK293-NFkB-AP reporter cells treated 7 hours
T1 construct: endogenous in cells; host or cells: HEK293 (A1); HEK293 stably expressing an NF-kB-alkaline phosphatase reporter (A2)
T1 sequence (Q96QP1 whole entry): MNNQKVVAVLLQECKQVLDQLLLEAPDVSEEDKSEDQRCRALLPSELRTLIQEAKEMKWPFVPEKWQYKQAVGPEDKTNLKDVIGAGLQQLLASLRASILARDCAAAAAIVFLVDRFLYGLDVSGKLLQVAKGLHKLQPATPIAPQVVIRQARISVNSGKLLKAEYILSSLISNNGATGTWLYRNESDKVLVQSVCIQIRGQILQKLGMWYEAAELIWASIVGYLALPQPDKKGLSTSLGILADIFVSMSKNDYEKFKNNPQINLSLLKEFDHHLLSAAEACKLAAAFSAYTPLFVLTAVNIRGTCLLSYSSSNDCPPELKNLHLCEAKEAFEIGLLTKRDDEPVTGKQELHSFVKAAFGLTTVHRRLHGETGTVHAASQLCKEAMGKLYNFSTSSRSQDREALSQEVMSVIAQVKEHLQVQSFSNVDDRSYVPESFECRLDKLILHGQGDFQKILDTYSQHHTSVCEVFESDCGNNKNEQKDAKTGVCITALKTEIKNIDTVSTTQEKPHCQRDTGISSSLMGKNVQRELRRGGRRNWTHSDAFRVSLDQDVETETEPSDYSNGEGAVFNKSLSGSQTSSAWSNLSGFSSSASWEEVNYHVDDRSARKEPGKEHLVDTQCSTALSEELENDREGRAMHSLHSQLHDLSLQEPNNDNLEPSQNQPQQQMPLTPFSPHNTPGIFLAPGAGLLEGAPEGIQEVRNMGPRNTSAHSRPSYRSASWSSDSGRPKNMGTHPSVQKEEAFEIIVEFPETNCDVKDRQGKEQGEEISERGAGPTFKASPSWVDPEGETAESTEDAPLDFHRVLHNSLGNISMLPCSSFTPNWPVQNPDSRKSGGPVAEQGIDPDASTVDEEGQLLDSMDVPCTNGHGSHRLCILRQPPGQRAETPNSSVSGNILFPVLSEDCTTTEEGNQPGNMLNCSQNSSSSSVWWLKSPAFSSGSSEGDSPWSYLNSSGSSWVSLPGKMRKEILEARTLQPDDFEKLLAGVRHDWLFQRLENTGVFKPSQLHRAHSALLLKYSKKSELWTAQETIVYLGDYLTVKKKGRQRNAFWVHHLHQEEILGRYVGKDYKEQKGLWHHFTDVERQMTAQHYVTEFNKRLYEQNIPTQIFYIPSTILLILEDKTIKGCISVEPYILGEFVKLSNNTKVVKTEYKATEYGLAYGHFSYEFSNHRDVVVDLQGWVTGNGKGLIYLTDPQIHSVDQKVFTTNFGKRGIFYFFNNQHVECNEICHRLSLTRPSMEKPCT
Description: NF-kB activation was assayed using HEK293 cells stably expressing an NF-kB reporter construct comprising an NF-kB promoter driving expression of alkaline phosphatase (AP). In this system, activation of NF-kB promoter activity drives the expression of AP which is detected using a chromogenic substrate, para-nitrophenyl phosphate (pNPP).
To assess the ALPK1 agonist activity of test compounds, the HEK293 cells were seeded in 96-well plates and allowed to attach overnight. Cells were then exposed to graded concentrations of compounds A1, A2, A3, A4, A18, A26, A27, A28, and A30. Compound 28 was included as a reference. Following treatment, cell culture supernatants were collected and analyzed for alkaline phosphatase activity using the pNPP assay. The results are shown in FIGS. 7A-7B and Table 2B-C below. The EC50 for each compound was determined using GraphPad Prism.

ALPK1 [2] = molecular target: T1, ALPK1; assay: IL-8 secretion by HEK293 cells (IL-8 ELISA) as indication of ALPK1 activation; format: cell-based; conditions: HEK293 cells treated 4 hours, FIG. 6, Table 2A
Description: HEK293 cells were treated with H1b-ADP derivatives (A1, A2, A3, and A4) or with Compound 28 for 4 hours followed by analysis of IL-8 secretion using an IL-8 enzyme linked immunoassay (ELISA). IL-8 secretion is an indication of ALPK1 activation. The EC50 of each compound was determined using GraphPad Prism.

Compound: CC(=O)OC[C@H](F)[C@H]1O[C@@H](OP(=O)(O)OP(O)(=S)OC[C@H]2O[C@@H](c3coc4c(N)ncnc34)[C@H](O)[C@@H]2O)[C@@H](OC(C)=O)[C@@H](OC(C)=O)[C@@H]1OC(C)=O (stereo partly drawn) [Compound A28, (2S,3S,4S,5S,6S)-2-((S)-2-acetoxy-1-fluoroethyl)-6-(((((((2R,3S,4R,5S)-5-(4-aminofuro[3,2-d]pyrimidin-7-yl)-3,4-dihydroxytetrahydrofuran-2-yl)methoxy)(hydroxy)phosphorothioyl)oxy)(hydroxy)phosphoryl)oxy)tetrahydro-2H-pyran-3,4,5-triyl triacetate]
- EC50 (ALPK1 [1]; FIG. 7B, Table 2C): 3.9 nM

Compound: CCCCCCCCCCCCCC(=O)OC[C@H](F)C1O[C@@H](OP(=O)(O)OP(O)(=S)OC[C@H]2O[C@@H](n3cnc4c(N)ncnc43)C(O)C2O)C(OC(C)=O)C(OC(C)=O)[C@@H]1OC(C)=O (stereo partly drawn) [Compound A3, (2S,3S,4S,5S,6S)-2-(((((((2R,3S,4R,5R)-5-(6-amino-9H-purin-9-yl)-3,4-dihydroxytetrahydrofuran-2-yl)methoxy)(hydroxy)phosphorothioyl)oxy)(hydroxy)phosphoryl)oxy)-6-((S)-1-fluoro-2-(tetradecanoyloxy)ethyl)tetrahydro-2H-pyran-3,4,5-triyl triacetate]
- EC50 (ALPK1 [2]): 2 nM
- EC50 (ALPK1 [1]; FIG. 7A, Table 2B): 3.9 nM

Compound: CC(=O)OC[C@H](F)[C@H]1O[C@@H](OP(=O)(O)OP(O)(=S)OC[C@H]2O[C@@H](n3ncc4c(N)ncnc43)[C@H](O)[C@@H]2O)[C@@H](OC(C)=O)[C@@H](OC(C)=O)[C@@H]1OC(C)=O (stereo partly drawn) [Compound A26, (2S,3S,4S,5S,6S)-2-((S)-2-acetoxy-1-fluoroethyl)-6-(((((((2R,3S,4R,5R)-5-(4-amino-1H-pyrazolo[3,4-d]pyrimidin-1-yl)-3,4-dihydroxytetrahydrofuran-2-yl)methoxy)(hydroxy)phosphorothioyl)oxy)(hydroxy)phosphoryl)oxy)tetrahydro-2H-pyran-3,4,5-triyl triacetate]
- EC50 (ALPK1 [1]; FIG. 7B, Table 2C): 10100 nM

Compound: CC(=O)OC[C@H](F)C1O[C@@H](OP(=O)(O)OP(O)(=S)OC[C@H]2O[C@@H](n3cnc4c(NC(=O)c5ccccc5)ncnc43)C(O)C2O)C(OC(C)=O)C(OC(C)=O)[C@@H]1OC(C)=O (stereo partly drawn) [Compound A27, (2S,3S,4S,5S,6S)-2-((S)-2-acetoxy-1-fluoroethyl)-6-(((((((2R,3S,4R,5R)-5-(6-benzamido-9H-purin-9-yl)-3,4-dihydroxytetrahydrofuran-2-yl)methoxy)(hydroxy)phosphorothioyl)oxy)(hydroxy)phosphoryl)oxy)tetrahydro-2H-pyran-3,4,5-triyl triacetate]
- EC50 (ALPK1 [1]; FIG. 7B, Table 2C): 37.8 nM

Compound: CC(=O)OC[C@H](F)[C@H]1O[C@@H](OP(=O)(O)OP(O)(=S)OC[C@H]2O[C@@H](c3csc(C(N)=O)c3N)[C@H](O)[C@@H]2O)[C@@H](OC(C)=O)[C@@H](OC(C)=O)[C@@H]1OC(C)=O (stereo partly drawn) [Compound A30, (2S,3S,4S,5S,6S)-2-((S)-2-acetoxy-1-fluoroethyl)-6-(((((((2R,3S,4R,5S)-5-(4-amino-5-carbamoylthiophen-3-yl)-3,4-dihydroxytetrahydrofuran-2-yl)methoxy)(hydroxy)phosphorothioyl)oxy)(hydroxy)phosphoryl)oxy)tetrahydro-2H-pyran-3,4,5-triyl triacetate]
- EC50 (ALPK1 [1]; FIG. 7B, Table 2C): 42.3 nM

Compound: CCCCCCCCCCCCCCCCCC(=O)OC[C@H](F)[C@H]1O[C@@H](OP(=O)(O)OP(O)(=S)OC[C@H]2O[C@@H](n3cnc4c(N)ncnc43)[C@H](O)[C@@H]2O)[C@@H](OC(C)=O)[C@@H](OC(C)=O)[C@@H]1OC(C)=O (stereo partly drawn) [Compound A1, (2S,3S,4S,5S,6S)-2-(((((((2R,3S,4R,5R)-5-(6-amino-9H-purin-9-yl)-3,4-dihydroxytetrahydrofuran-2-yl)methoxy)(hydroxy)phosphorothioyl)oxy)(hydroxy)phosphoryl)oxy)-6-((S)-1-fluoro-2-(stearoyloxy)ethyl)tetrahydro-2H-pyran-3,4,5-triyl triacetate]
- EC50 (ALPK1 [2]): 3.1 nM
- EC50 (ALPK1 [1]; FIG. 7A, Table 2B): 11 nM

Compound: CCCCCCCCCCCC(=O)OC[C@H](F)C1O[C@@H](OP(=O)(O)OP(O)(=S)OC[C@H]2O[C@@H](n3cnc4c(N)ncnc43)C(O)C2O)C(OC(C)=O)C(OC(C)=O)[C@@H]1OC(C)=O (stereo in doubt) [Compound A2, 2S,3S,4S,5S,6S)-2-(((((((2R,3S,4R,5R)-5-(6-amino-9H-purin-9-yl)-3,4-dihydroxytetrahydrofuran-2-yl)methoxy)(hydroxy)phosphorothioyl)oxy)(hydroxy)phosphoryl)oxy)-6-((S)-2-(dodecanoyloxy)-1-fluoroethyl)tetrahydro-2H-pyran-3,4,5-triyl triacetate]
- EC50 (ALPK1 [2]): 7.1 nM
- EC50 (ALPK1 [1]; FIG. 7A, Table 2B): 11.9 nM

Compound: CCCCCCCCC(=O)OC[C@H](F)C1O[C@@H](OP(=O)(O)OP(O)(=S)OC[C@H]2O[C@@H](n3cnc4c(N)ncnc43)C(O)C2O)C(OC(C)=O)C(OC(C)=O)[C@@H]1OC(C)=O (stereo partly drawn) [Compound A4, (2S,3S,4S,5S,6S)-2-(((((((2R,3S,4R,5R)-5-(6-amino-9H-purin-9-yl)-3,4-dihydroxytetrahydrofuran-2-yl)methoxy)(hydroxy)phosphorothioyl)oxy)(hydroxy)phosphoryl)oxy)-6-((S)-1-fluoro-2-(nonanoyloxy)ethyl)tetrahydro-2H-pyran-3,4,5-triyl triacetate]
- EC50 (ALPK1 [2]): 19.2 nM
- EC50 (ALPK1 [1]; FIG. 7A, Table 2B): 19.1 nM
